In brackets after ≈: the same amount, converted by molar mass. Where two headings read alike, the source gives them in different places.
Tests used:
pancreatic lipase = experiment: Digestion in bile-pancreatic juice simulated intestinal juice; assay type: in vitro ADME; conditions: 37° C.
Method: (§1) Emulsions prepared in Example 5 are incubated in simulated gastric juice, bile-pancreatic juice simulated intestinal juice, and lipoprotein lipase-containing plasma at 37° C., respectively; and samples are taken at predetermined time points to investigate the physical stability of the prodrug emulsion and the chemical stability of the prodrug in different media.

[1] = Stability in lipoprotein lipase-containing plasma; assay type: in vitro ADME; conditions: plasma added with lipoprotein lipase, after continuous incubation
Method: as §1

in vivo = experiment: in vivo
Method: Taking SD rats as a model, a docetaxel-triglyceride prodrug emulsion and a docetaxel solution are orally administered; a plasma concentration of a parent drug is measured; and a drug-time curve is drawn and corresponding pharmacokinetic parameters are calculated respectively based on the measured concentration (Table 2). In order to calculate the absolute bioavailability, a docetaxel solution is administered intravenously, and the content of docetaxel in the plasma is measured.
In addition, in order to investigate whether the docetaxel-triglyceride prodrug is transported through the lymphatics, one hour before oral administration of the DTX-S-S-TG and the docetaxel solution, […] is administered intraperitoneally to inhibit the release of chylomicrons. The effect of lymphatic transport on the absorption of the prodrug is investigated.

4T1 tumor = assay type: in vivo; conditions: oral, 4T1 tumor-bearing Balb/c mice
Excerpt: It reminds us that a good pharmacodynamic result not only requires a significant pharmacokinetic result, but also that a specific release at a tumor site is very important.

[2] = In vivo intestinal perfusion in rats
Excerpt: The intestinal permeability of a docetaxel-triglyceride prodrug is investigated by in vivo intestinal perfusion in rats. […] In order to investigate the effect of intestinal pancreatic lipase digestion on the absorption of the prodrug, a pancreatic lipase inhibitor orlistat is administrated half an hour in advance.

4T1 cells = experiment: cells; assay type: cell-based; conditions: Mus musculus
Excerpt: (§2) In order to investigate the tumor reduction-sensitive release of DTX-S-S-TG, 4T1 cells and KB cells are used as models to investigate the cytotoxicity of DTX-5C-TG, a DTX-S-S-TG emulsion and a docetaxel solution. […] Due to a reduction-sensitive dithio linking bridge, DTX-S-S-TG has higher drug release efficiency than DTX-5C-TG, which is linked by insensitive ester bonds. As a result, the cytotoxicity of DTX-S-S-TG is stronger than that of DTX-5C-TG. Meanwhile, due to the slow release of a sensitive prodrug, DTX-S-S-TG has lower cytotoxicity than the docetaxel solution.

KB cells = experiment: cells; assay type: cell-based; conditions: Homo sapiens
Excerpt: as §2

[3] = mouse, in vivo

Row | oral bioavailability improved versus docetaxel (in vivo; rat, in vivo, po) | Compound | degradation into docetaxel-monoglyceride prodrugs in intestinal juice (pancreatic lipase) | release of docetaxel parent drug in plasma [1] | anti-tumor effect (4T1 tumor) | effect of pancreatic lipase inhibitor orlistat on absorption ([2]; rat, in vivo) | Fabs (in vivo; SD, rat, in vivo) [%] | AUC(0-t) (in vivo; SD, rat, in vivo, po) [ng·h/mL] | Cmax (in vivo; SD, rat, in vivo, po) [ng/mL] | Frel (in vivo; SD, rat, in vivo, po) [%] | Tmax (in vivo; SD, rat, in vivo, po) [h] | half-life (in vivo; SD, rat, in vivo, po) [h] | effect of cyclophosphamide (lymphatic suppression) on oral absorption / AUC (in vivo; rat, in vivo) | IC50 (4T1 cells; 48 h, read-out: IC50 4T1 48 h) [ng/mL] | IC50 (4T1 cells; 72 h, read-out: IC50 4T1 72 h) [ng/mL] | IC50 (KB cells; 48 h, read-out: IC50 KB 48 h) [ng/mL] | IC50 (KB cells; 72 h, read-out: IC50 KB 72 h) [ng/mL] | gastrointestinal toxicity (injury to intestinal segments) ([3]; iv) | gastrointestinal toxicity (injury to intestinal segments) ([3]; po) | permeability coefficient Ka, increase compared with docetaxel solution ([2]; in vivo intestinal perfusion in rats) [times] | blood concentration (in vivo; oral, SD rats)
1 | 1.05-4.71 times | Docetaxel-C5(Et)-Triglyceride Prodrug [DTX-5C(Et)-TG] | relatively slow degradation rate | release the drug slowly | certain anti-tumor effect | – | – | – | – | – | – | – | – | – | – | – | – | – | – | – | –
2 | – | CC(=O)O[C@@]12CO[C@@H]1C[C@H](O)[C@@]1(C)C(=O)[C@H](O)C3=C(C)[C@@H](OC(=O)[C@H](O)[C@@H](NC(=O)OC(C)(C)C)c4ccccc4)C[C@@](O)([C@@H](OC(=O)c4ccccc4)[C@H]21)C3(C)C [DTX Solution, docetaxel] | – | – | almost no anti-tumor effect | no significant effect | 9.4 | 168 ± 125 | 21 ± 6.8 | 100 | 0.4 ± 0.5 | 11.8 ± 8.4 | no significant difference in AUC | 16.6 (≈ 20.5 nM) | 5.9 (≈ 7.3 nM) | 4.9 (≈ 6.07 nM) | 1.3 (≈ 1.61 nM) | injury to respective intestinal segments | slight injury to the jejunum | – | –
3 | – | CCCCCCCCCCCCCCCC(=O)OCC(COC(=O)CCCCCCCCCCCCCCC)OC(=O)C(CCC(=O)O[C@@H](C(=O)O[C@H]1C[C@@]2(O)[C@@H](OC(=O)c3ccccc3)[C@@H]3[C@]4(OC(C)=O)CO[C@@H]4C[C@H](O)[C@@]3(C)C(=O)[C@H](O)C(=C1C)C2(C)C)[C@@H](NC(=O)OC(C)(C)C)c1ccccc1)OC(=O)C(C)(C)C (some centres unmarked) [DTX-5C(Piv)-TG, Docetaxel-C5(Piv)-Triglyceride Prodrug] | relatively slow degradation rate | hardly releases the docetaxel parent drug | – | – | – | – | – | – | – | – | – | – | – | – | – | – | – | 1.15 | lower than a detection limit

Source: US20220016251A1, “LYMPHATIC MEDIATED TRANSPORT-BASED TRIGLYCERIDE PRODRUG, AND PREPARATION METHOD THEREFOR” (SHENYANG PHARMACEUTICAL UNIVERSITY, priority 2019, published 2022)
